Data taken from patent US20120142766A1, “SUBSTITUTED 1,3-DIOXANES AND THEIR USES” (EVOLVA SA, priority 2007, published 2012).

Experiments:
Thromboxane synthase = biological target: T1, Thromboxane synthase (Homo sapiens, UniProt P24557); test: Human platelet thromboxane synthase assay; type: biochemical
T1 construct: Human Platelet Thromboxane Synthase Assay; from tissue; host or cells: human platelets
T1 sequence (P24557 1-533): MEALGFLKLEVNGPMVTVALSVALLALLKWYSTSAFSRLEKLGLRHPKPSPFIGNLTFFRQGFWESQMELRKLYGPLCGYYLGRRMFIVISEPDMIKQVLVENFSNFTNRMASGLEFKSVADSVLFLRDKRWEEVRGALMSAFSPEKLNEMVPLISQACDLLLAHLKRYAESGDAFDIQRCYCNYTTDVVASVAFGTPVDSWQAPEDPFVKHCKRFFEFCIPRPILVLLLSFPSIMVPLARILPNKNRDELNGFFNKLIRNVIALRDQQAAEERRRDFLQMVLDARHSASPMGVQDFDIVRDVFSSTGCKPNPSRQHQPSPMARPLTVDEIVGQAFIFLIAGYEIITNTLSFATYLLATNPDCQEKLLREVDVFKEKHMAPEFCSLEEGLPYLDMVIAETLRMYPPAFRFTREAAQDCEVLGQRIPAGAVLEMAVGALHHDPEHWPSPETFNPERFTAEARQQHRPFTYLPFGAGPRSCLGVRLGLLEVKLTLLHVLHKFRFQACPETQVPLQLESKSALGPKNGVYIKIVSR
Experimental: The compounds were tested for thromboxane synthase inhibition essentially as described by Borsch-Haubold A G, Pasquet S, Watson S P. (1998) Direct inhibition of cyclooxygenase-1 and -2 by the kinase inhibitors SB 203580 and PD 98059. […] 1. Imidazole derivatives. J Med. Chem. (10):1139-48 according to the following:
Pre-incubation time, temp: 15 minutes at 25° C. Incubation time, temp: 3 minutes at 25° C.
Incubation Buffer: 10 mM Tris-HCl, pH 7.4
Quantification Method: EIA quantification of TxB2

[1] = tested on: New Zealand Rabbit platelet rich plasma; test: TP receptor platelet aggregation, rabbit (U-46619-induced); type: cell-based
Experimental: (§1) Thrombosis Research 33:277-288.
TP Receptor Platelet Aggregation—Rabbit:
New Zealand Rabbit (2.75±0.25 kg) platelet rich plasma
Assay: Inhibition of 1.5 μM U-46619-induced platelet aggregation Incubation Time, Temp: 5 minutes at 37° C. Incubation Buffer Trisodium Citrate (0.13 M)-treated platelet rich plasma
(§2) Time of Assessment: 5 minutes
(§3) Quantification Method Optical Density Change

[2] = biological target: T2, Human Recombinant (E. coli) PPARgamma (Homo sapiens, UniProt P37231); test: PPAR gamma binding assay ([3H]-rosiglitazone); conditions: for IC50 / Ki: [3H]-rosiglitazone 10 nM; for IC50: read-out: PPARγ binding IC50; for Ki: Cheng Prusoff, read-out: PPARγ binding Ki
T2 construct: host or cells: E. coli
T2 sequence (P37231 1-505): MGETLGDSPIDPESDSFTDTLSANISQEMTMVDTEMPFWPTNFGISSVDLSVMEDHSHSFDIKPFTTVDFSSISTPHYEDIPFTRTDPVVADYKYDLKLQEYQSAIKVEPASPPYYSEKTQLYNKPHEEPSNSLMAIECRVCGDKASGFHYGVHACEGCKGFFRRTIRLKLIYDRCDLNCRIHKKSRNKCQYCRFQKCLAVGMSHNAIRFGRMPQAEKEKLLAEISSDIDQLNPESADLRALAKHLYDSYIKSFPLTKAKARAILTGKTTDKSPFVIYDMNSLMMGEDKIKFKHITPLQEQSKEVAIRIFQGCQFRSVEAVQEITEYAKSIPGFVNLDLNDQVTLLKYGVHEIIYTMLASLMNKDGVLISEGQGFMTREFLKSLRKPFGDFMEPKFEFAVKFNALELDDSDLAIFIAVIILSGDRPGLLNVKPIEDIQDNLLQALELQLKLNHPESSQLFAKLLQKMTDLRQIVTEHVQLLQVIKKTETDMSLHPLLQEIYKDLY
Experimental: Incubation: 120 min. at 4° C.
The results are expressed as a percent of control specific binding ((measured specific binding/control specific binding)×100) obtained in the presence of the test compounds. The IC50 values (concentration causing a half-maximal inhibition of control specific binding) and Hill coefficients (nil) were determined by non-linear regression analysis of the competition curves generated with mean replicate values using Hill equation curve fitting (Y=D+[(A−D)/(1+(C/C50)nH)], where Y=specific binding, D=minimum specific binding, A=maximum specific binding, C=compound concentration, C50=IC50, and nH=slope factor). This analysis was performed using a software developed at Cerep (Hill software) and validated by comparison with data generated by the commercial software SigmaPlot® 4.0 for Windows® (© 1997 by SPSS Inc.). The inhibition constants (Ki) were calculated using the Cheng Prusoff equation (Ki=IC50/(1+(L/KD)), where L=concentration of radioligand in the assay, and KD=affinity of the radioligand for the receptor).

[3] = biological target: T3, Thromboxane receptor (TP) (Homo sapiens, UniProt P21731); test: TP receptor radioligand binding ([3H] SQ-29548); conditions: Human recombinant HEK-293 cells
T3 construct: expressed in transfected cells; host or cells: HEK-293
T3 sequence (P21731 1-343): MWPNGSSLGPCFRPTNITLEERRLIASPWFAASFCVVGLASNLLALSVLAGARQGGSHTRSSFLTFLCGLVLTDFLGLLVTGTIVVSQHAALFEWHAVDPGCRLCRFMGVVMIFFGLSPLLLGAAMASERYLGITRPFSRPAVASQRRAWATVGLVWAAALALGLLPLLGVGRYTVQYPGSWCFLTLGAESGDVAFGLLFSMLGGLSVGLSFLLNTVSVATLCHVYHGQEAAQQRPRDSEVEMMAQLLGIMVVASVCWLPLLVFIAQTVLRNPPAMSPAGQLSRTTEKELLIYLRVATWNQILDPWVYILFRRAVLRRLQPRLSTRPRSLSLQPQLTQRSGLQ
Experimental: The compounds were tested on radioligand binding assays for thromboxane receptor binding essentially as described by Hedberg et al. (1988) J. Pharmacol. Exp. Ther. 245:786-792 and Saussy et al. (1986) J. Biol. Chem. 261: 3025-3029 according to the following:
TP Receptor Radioligand Binding Studies:
Human recombinant HEK-293 cells,
Incubation Time, Temp: 30 minutes at 25° C.
Incubation Buffer: 50 mM Tris-HCl, pH 7.4, 154 mM NaCl
Non-Specific Ligand: 1 μM SQ-29548
The data were transformed to semi-log and then analysed using non-linear regression to a four-parameter dose-response curve Y=Bottom+(Top−Bottom)/(1+10̂((LogEC50−X)*HillSlope)) using the log(agonist) vs. response—Variable slope function of GraphPad Prism software (http://graphpad.com/help/prism5/prism5help.html?usitignonlinear_regression_step_by_s.htm).

[4] = tested on: Human platelet rich plasma; test: TP receptor platelet aggregation, human (U-46619-induced); type: cell-based; conditions: 3 μM U-46619-induced
Experimental: as §1
TP Receptor Platelet Aggregation—Human:
Human (60±10 kg) platelet rich plasma
Assay. Inhibition of 3 μM U-46619-induced platelet aggregation Incubation Time, Temp: 5 minutes at 37° C. Incubation Buffer Trisodium Citrate (0.13 M)-treated fresh platelet rich plasma
as §2, §3

[5] = tested on: arterial thrombosis in a mouse model; test: Arterial thrombosis mouse model (FeCl3 on femoral artery); type: in vivo; conditions: dose not given
Experimental: The solutions are diluted 3.3-fold in saline and 100 μl/25 g is injected. Thus, the above-mentioned doses of 100 and 300 mg/kg of compound correspond to final doses of 30 and 100 mg/kg.
During the experiments, a soluble salt of the drug is provided (potassium salt of compound C), diluted in saline. Of this formulation, 100 μl/25 g is injected i.v. in the tail vein (dose of 100 mg/kg).
Solutions are injected (100 μl/25 g body weight) i.v. in the tail vein over 2 min to obtain doses of each compound of 30 mg/kg and 100 mg/kg. Aspirin is given the same way at a dose of 200 mg/kg. Clopidogrel is administered by oral gavage at a dose of 20 mg/kg at 6-7 hours prior to the experiment. The animals assigned to each group are matched for body weight. Mice are typically 8-10 weeks old males and are in a 100% Swiss genetic background.
The flow in each image is expressed as a percentage of that at the contralateral side, and data are averaged for all 120 images to determine total flow. The same analysis is performed for 10 min intervals (which gives essentially the same information as the area under the curve). […] Flow before treatment is recorded as 100%, and that in occluded arteries as 0%. At the end of the experiment, blood is collected on 0.01M citrate by heart puncture for determination of blood cell counts. Plasma is prepared by centrifugation and stored at −20° C. for determination of drug levels.
Statistical analysis for differences between two groups is performed by non-parametric Student t-test. Occlusion times >30 min were considered equal to 30 min for statistical analysis. Significance is set at p<0.05.

[6] = Oryctolagus cuniculus, Platelet, 1.5 μM U-46619-induced

Compound | inhibition at 5 µM (Thromboxane synthase) [%] | IC50 [2] [nM] | inhibition at 10 µM [3] [%] | inhibition at 10 µM (Thromboxane synthase; 10 μM) [%] | IC50 (Thromboxane synthase) [nM] | Ki [2] [nM] | inhibition at 10 µM [1, 6] [%] | also measured
O=C(O)CC/C=C\C[C@@H]1COC(c2ccccc2Oc2ccc(F)cc2)O[C@@H]1c1ccccc1O (some centres unmarked) [Compound 4] | 39 | 2100 | 100 |  |  |  | 100 | 
COc1ccc(Oc2ccccc2C2OC[C@@H](C/C=C\CCC(=O)O)[C@@H](c3ccccc3O)O2)cc1 (some centres unmarked) [Compound 1] | 71 | 2300 | 101 |  | 354 | 800 |  | Occlusion time [5]: prolongs the occlusion time; Total blood flow [5]: improves total blood flow; Inhibition of thromboxane synthase (in words) (Thromboxane synthase; Table 2): inhibitors of thromboxane synthase; inhibition at 30 µM ([1]; Oryctolagus cuniculus, Platelet, 30 μM, 1.5 μM U-46619-induced): 96%; Inhibition of platelet aggregation (in words) ([1]; Table 2): potent inhibitors of platelet aggregation; PPARgamma binding compared with Compound A (in words) ([2]; summary of Table 3): at least as well as Compound A; IC50 ([3]; 5 nM [3H] SQ-29548): 1.25 nM; Ki ([3]; 5 nM [3H] SQ-29548): 0.82 nM

More lines, main results first:

inhibition at 5 µM (Thromboxane synthase) [%] | IC50 [2] [nM] | inhibition at 10 µM [3] [%] | inhibition at 10 µM (Thromboxane synthase; 10 μM) [%] | IC50 (Thromboxane synthase) [nM] | Ki [2] [nM] | Compound | inhibition at 10 µM [1, 6] [%] | also measured
12 | 21000 | 98 |  |  |  | COc1ccccc1C1OC(c2ccccc2Cl)OCC1C/C=C\CCC(=O)O (centres unmarked) [Compound D, (Z)-6-(-2-(2-chlorophenyl)-4-(2-methoxyphenyl)-1,3-dioxan-5-yl)hex-4-enoic acid] | 33 | 
 |  |  | 25 |  |  | O=C(O)CC/C=C\C[C@H]1CO[C@@H](c2ccccc2Cl)O[C@H]1c1ccccc1O [Compound B, (Z)-6-((2R,4R,5S)-2-(2-chlorophenyl)-4-(2-hydroxyphenyl)-1,3-dioxan-5-yl)hex-4-enoic acid] |  | Thromboxane synthase Human platelet Inhibition (%) (Thromboxane synthase; 10 μM): 28%; inhibition at 30 µM ([4]; 30 μM): 13%; inhibition at 100 µM ([1]; Oryctolagus cuniculus, Platelet, 0.1 mM, 1.5 μM U-46619-induced): 15%; PPARγ binding (in words) ([2]; at 30 μM): no binding
 | 13000 | 105 | 16 | 31900 | 4800 | O=C(O)CC/C=C\CC1COC(c2ccccc2Cl)OC1c1ccccc1O (racemic) [Compound A, (Z)-6-(-2-(2-chlorophenyl)-4-(2-hydroxyphenyl)-1,3-dioxan-5-yl)hex-4-enoic acid] |  | IC50 [4]: 1500 nM
